In assay [1] the target is T1, IDO1 (Homo sapiens (Human), UniProt P14902). Description: IDO1 Enzyme Assay. The format is biochemical. The conditions noted are these: HIS-tagged recombinant IDO1, fluorescence readout. In short, it runs like this: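 Purified His-tagged human IDO1 (40 nM final, E. coli-expressed) was preincubated 30 min at RT with compound in 50 mM Tris pH 7.0 with methylene blue, ascorbate and catalase. Reaction ran 60 min at RT after adding tryptophan (400 μM stock), was quenched with methyl isonipecotate and heated, then read by fluorescence (ex 400, em 510 nm); IC50 via four-parameter logistic fit.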
Target sequence in this assay (P14902 whole entry, species assumed): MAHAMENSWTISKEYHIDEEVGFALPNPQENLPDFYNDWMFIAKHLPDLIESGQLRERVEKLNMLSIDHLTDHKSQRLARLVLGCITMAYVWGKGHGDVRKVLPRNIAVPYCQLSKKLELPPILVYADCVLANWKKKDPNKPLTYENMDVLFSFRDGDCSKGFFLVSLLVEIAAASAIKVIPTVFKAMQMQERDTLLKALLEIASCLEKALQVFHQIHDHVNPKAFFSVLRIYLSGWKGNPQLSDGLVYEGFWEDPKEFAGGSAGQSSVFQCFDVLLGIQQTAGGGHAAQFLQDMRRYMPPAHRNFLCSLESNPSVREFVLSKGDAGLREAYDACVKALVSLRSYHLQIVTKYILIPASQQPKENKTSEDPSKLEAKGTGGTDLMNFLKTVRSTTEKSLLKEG

Assay [2] has as its target T1, IDO1. Kind of assay: IDO1 Cellular Assay in Hela Cells Stimulated with IFNγ. The format is cell-based. The following applies: about 48 hours, read-out: IDO1 HELA Cell Assay, IC50. In short, it runs like this:
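HeLa cells (2×10^5 cells/ml) with 300 uM L-tryptophan and 100 ng/mL IFNγ exposed to 10-point 3-fold compound dilutions for about 48 h at 37° C. Kynurenine detected by fluorescence (ex 400, em 510 nm) after overnight methyl isonipecotate. Signal normalised to non-IFNγ and DMSO wells; IC50 by four-parameter logistic fit.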
Target sequence in this assay (P14902 whole entry): as the sequence (P14902 whole entry, species assumed) above

The target of assay [3] is T1, IDO1. Description: IDO1 Human Whole Blood Assay. The assay is classed as cell-based. The following applies: LPS and IFNγ, 18 h, kynurenine by LC/MS/MS. Here is the method: Compounds to be tested were serially diluted in ten 3-fold steps in DMSO starting from 10 mM. 3 μL of compound dilutions or DMSO alone were then dispensed from the dilution plate into a polypropylene 96-well assay plate containing 97 μL of RPMI using an Echo 555 acoustic liquid handler (Labcyte). LPS and IFNγ was prepared in RPMI to a 10λ of final conc. (1000 ng/mL), final concentration is 100 ng/mL.
Human whole blood was drawn in sodium heparin coated tubes from healthy internal donors. Two hundred forty μL of blood was transferred to each of the wells of a v-bottom 96 well plate. Thirty μL of compound was transferred from intermediate dilution plate, and incubated for 15 min. […] from stimulants was then transferred to blood and mixed thoroughly. Plate was covered with breathable membrane and incubated at 37° C. for overnight (18 h).
On day 2 isotope labeled standard of kynurenine and tryptophan was made in water at 10× concentration and 30 μL was added to the blood at 3 μM final concentration. The assay plates were centrifuged at 300×G for 10 min with no brake to separate plasma from red blood cells. Sixty μL of plasma samples was removed without disturbing red blood cells.
Plasma was diluted with RPMI in 1:1 ratio and proteins were precipitated out with two volume of Acetonitrile. The plates was centrifuged at 4000×G for 60 min. Twenty μL of supernatant was carefully transferred to a 384 well plate contain 40 μL of 0.1% formic acid in water and analyzed by LC/MS/MS.
LC/MS/MS analyses were performed using Thermo Fisher's LX4-TSQ Quantum Ultra system. This system consists of four Agilent binary high-performance liquid chromatography (HPLC) pumps and a TSQ Quantum Ultra triple quadruple MS/MS instrument. For each sample, 5 μL were injected onto an Atlantis T3 column (2.1 mm×150 mm, 3 μm particle size) from Waters. The mobile phase gradient pumped at 0.8 mL/min was used to elute the analytes from the column at 25° C. The elution started at 0% B increasing linearly to 25% B at 6.5 min, holding at 25% for 1 min, re-equilibrating to 10 min. Mobile phase A consisted of 0.1% formic acid in water. Mobile phase B consisted of 0.1% of formic acid in acetonitrile. Data was acquired in positive mode using a HESI interface. The operational parameters for the TSQ Quantum Ultra instrument were a spray voltage of 4000 V, capillary temperature of 380° C., vaporizer temperature 400° C., shealth gas 60 arbitrary units, Aux gas 20 arbitrary units, tube lens 85 and collision gas 1.2 mTorr. SRM chromatograms of kynurenine (QI: 209.2>Q3:94.0) and internal standard (Q1: 215.3>Q3:98.2) were collected for 90 sec. The peak area was integrated by Xcalibur Quan software. The ratios between the kynurenine generated in the reaction and 2D6-Kynurenine spiked-in internal standard were used to generate percentage inhibition and IC50 values. Compounds were titrated and IC50's were calculated by 4 parameter sigmoidal curve fitting formula.
Target sequence in this assay (P14902 whole entry): as the sequence (P14902 whole entry, species assumed) above

For orientation: IC50 means the concentration that gives 50% inhibition. For the molecule `CS(=O)(CCNc1nonc1/C(=N/O)N[C@H]1Cc2ccc(F)cc21)=NC(N)=O` (stereo partly drawn) [Example 16, 4-((2-(N-carbamoyl-S-methylsulfonimidoyl)ethyl)amino)-N-((S)-4-fluorobicyclo[4.2.0]octa-1,3,5-trien-7-yl)-N′-hydroxy-1,2,5-oxadiazole-3-carboximidamide], the IC50 on IDO1 [1] was 55.1 nM; at IDO1 [2] it was 69.2 nM; on IDO1 [3], 843 nM.

Turning to `CS(=O)(CCNc1nonc1/C(=N/O)N[C@H]1Cc2ccc(F)cc21)=NC#N` (stereo partly drawn) [Example 17, 4-((2-(N-cyano-S-methylsulfonimidoyl)ethyl)amino)-N-((S)-4-fluorobicyclo[4.2.0]octa-1(6),2,4-trien-7-yl)-N′-hydroxy-1,2,5-oxadiazole-3-carboximidamide], the IC50 at IDO1 [1] was found to be 64.7 nM; at IDO1 [2], 53.7 nM; on IDO1 [3], 173 nM.

The values above are taken from US10927086B2, “Substituted sulfoximine compounds as indoleamine 2,3-dioxygenase (IDO) inhibitors” (Merck Sharp & Dohme Corp., priority 2017, dated 2021).
